Experimental data from US10898595B2, “Core-satellite nanocomposites for MRI and photothermal therapy” (The Regents of the University of Michigan, priority 2013, dated 2021).

Tested on: SUM-159 tumors
Experiment: In vivo PTT using IONP-IR820
Design: species or system mice
Conditions: 10 minutes
Protocol: Tumor-bearing nude mice were randomly allocated into three groups (five mice in each group) when the solid SUM-159 tumors had grown to ˜80 mm3. Mice in each group were intravenously injected with IONP-IR820 (20 mg Fe/Kg mouse body weight), the same amount of IR820, the same amount of IONPs. 24 h post injection, tumors were irradiated with a diode laser (λ=885 nm) at a laser power of 0.5 W for 10 minutes. The highest tumor surface temperature was recorded by an infrared camera (FLIR Systems, i7, Boston, Mass.) before and after application of the laser.
Mice were humanely euthanized by CO2 inhalation 24 h following a single I.V. bolus dose of nanoparticles. The harvested tissue was formalin-fixed, embedded in paraffin and sectioned. Unstained slides were dewaxed using xylene and rehydrated using graded alcohol. Rehydrated slides were stained with Hematoxylin and eosin (H&E staining) for visualization of nucleic acids and cytoplasm.

CC1(C)C(=CC=C2CCCC(C=CC3=[N+](CCCCS(=O)(=O)[O-])c4ccc5ccccc5c4C3(C)C)=C2Cl)N(CCCCS(=O)(=O)[O-])c2ccc3ccccc3c21.[Na+] [IR820]
Tumor tissue hemorrhaging right after laser irradiation (24 h post IV injection (20 mg Fe/Kg or same amount), 885 nm laser 0.5 W): does not have any obvious hemorrhaging
Average temperature increase at the tumor site (24 h post IV injection, laser 0.5 W, infrared camera): 8.3±0.8 °C
